From PubChem BioAssay AID2060510 (Molecular Pharmacology Branch, DTP, NCI, 2025)

System: 439559-082-T-J2-PDC spheroids viability
Assay: Anticancer human tumor 439559-082-T-J2-PDC patient-derived colon adenocarcinoma cell line growth inhibition [GQUAD]
Conditions: for IC50: curve of first compound; for viability, T/C: stronger effect = lower value
Summary of the method: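 Multi-cell-type spheroids of tumor cells with HUVEC and mesenchymal stem cells, treated with drug combinations. Concentrations descend in half-log steps from near clinical Cmax, or from 10 microM where Cmax is unknown; viability read-out.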

[1] = second compound 0.0316 µM, first compound 0.0316 µM
[2] = second compound 0.0316 µM, first compound 0.1 µM
[3] = second compound 0.0316 µM, first compound 0.316 µM
[4] = second compound 0.0316 µM, first compound 1 µM
[5] = second compound 0.0316 µM, first compound 3.16 µM
[6] = second compound 0.0316 µM, first compound 10 µM
[7] = second compound 0.1 µM, first compound 0.0316 µM
[8] = second compound 0.1 µM, first compound 0.1 µM
[9] = second compound 0.1 µM, first compound 0.316 µM
[10] = second compound 0.1 µM, first compound 1 µM
[11] = second compound 0.1 µM, first compound 3.16 µM
[12] = second compound 0.1 µM, first compound 10 µM
[13] = second compound 0.316 µM, first compound 0.0316 µM
[14] = second compound 0.316 µM, first compound 0.1 µM
[15] = second compound 0.316 µM, first compound 0.316 µM
[16] = second compound 0.316 µM, first compound 1 µM
[17] = second compound 0.316 µM, first compound 3.16 µM
[18] = second compound 0.316 µM, first compound 10 µM
[19] = second compound 1 µM, first compound 0.0316 µM
[20] = second compound 1 µM, first compound 0.1 µM
[21] = second compound 1 µM, first compound 0.316 µM
[22] = second compound 1 µM, first compound 1 µM
[23] = second compound 1 µM, first compound 3.16 µM
[24] = second compound 1 µM, first compound 10 µM
[25] = second compound 3.16 µM, first compound 0.0316 µM
[26] = second compound 3.16 µM, first compound 0.1 µM
[27] = second compound 3.16 µM, first compound 0.316 µM
[28] = second compound 3.16 µM, first compound 1 µM
[29] = second compound 3.16 µM, first compound 3.16 µM
[30] = second compound 3.16 µM, first compound 10 µM
[31] = second compound 10 µM, first compound 0.0316 µM
[32] = second compound 10 µM, first compound 0.1 µM
[33] = second compound 10 µM, first compound 0.316 µM
[34] = second compound 10 µM, first compound 1 µM
[35] = second compound 10 µM, first compound 3.16 µM
[36] = second compound 10 µM, first compound 10 µM
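Also: spheroids exposed to the agents for 7 days before readout.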
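For viability, T/C in this document: percent of luminescence signal in DMSO vehicle wells taken as 100% viability.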

Question: How did the IC50 (second compound 0.0316 µM) turn out when `COc1ncnc(C2CC2)c1-c1ncc2cnn(Cc3ccc(-c4nc(C(F)(F)F)cn4C(C)C)cc3)c2n1` + CN(C)c1ccc(Nc2c3ccc(NC(=O)CCN4CCCC4)cc3nc3cc(NC(=O)CCN4CCCC4)ccc23)cc1 was run?
Answer: > 10 µM

Question: And the IC50 (second compound 0.1 µM)?
Answer: > 10 µM

Question: What about the IC50 (second compound 0.316 µM) of the same compound?
Answer: > 10 µM

Question: What about the IC50 (second compound 1 µM) of the same compound?
Answer: > 10 µM

Question: And the IC50 (second compound 3.16 µM)?
Answer: > 10 µM

Question: And the IC50 (second compound 10 µM)?
Answer: > 10 µM

Question: What about the viability, T/C [1] of the same compound?
Answer: 93.2%

Question: What about the viability, T/C [2] of the same compound?
Answer: 106%

Question: What about the viability, T/C [3] of the same compound?
Answer: 90.6%

Question: What about the viability, T/C [4] of the same compound?
Answer: 89.5%

Question: What about the viability, T/C [5] of the same compound?
Answer: 103%

Question: What about the viability, T/C [6] of the same compound?
Answer: 98.5%

Question: And the viability, T/C [7]?
Answer: 98.7%

Question: What about the viability, T/C [8] of the same compound?
Answer: 93.5%

Question: What about the viability, T/C [9] of the same compound?
Answer: 97.5%

Question: What about the viability, T/C [10] of the same compound?
Answer: 99.1%

Question: And the viability, T/C [11]?
Answer: 94.8%

Question: And the viability, T/C [12]?
Answer: 96.6%

Question: And the viability, T/C [13]?
Answer: 91.6%

Question: What about the viability, T/C [14] of the same compound?
Answer: 96.1%

Question: And the viability, T/C [15]?
Answer: 82.7%

Question: And the viability, T/C [16]?
Answer: 97.7%

Question: What about the viability, T/C [17] of the same compound?
Answer: 96.8%

Question: What about the viability, T/C [18] of the same compound?
Answer: 102%

Question: What about the viability, T/C [19] of the same compound?
Answer: 98.8%

Question: And the viability, T/C [20]?
Answer: 96.3%

Question: And the viability, T/C [21]?
Answer: 98.4%

Question: What about the viability, T/C [22] of the same compound?
Answer: 87.9%

Question: What about the viability, T/C [23] of the same compound?
Answer: 104%

Question: What about the viability, T/C [24] of the same compound?
Answer: 92.7%

Question: What about the viability, T/C [25] of the same compound?
Answer: 90.4%

Question: And the viability, T/C [26]?
Answer: 98.4%

Question: And the viability, T/C [27]?
Answer: 91.6%

Question: And the viability, T/C [28]?
Answer: 93.5%

Question: And the viability, T/C [29]?
Answer: 96%

Question: What about the viability, T/C [30] of the same compound?
Answer: 99%

Question: What about the viability, T/C [31] of the same compound?
Answer: 89.3%

Question: What about the viability, T/C [32] of the same compound?
Answer: 86.2%

Question: What about the viability, T/C [33] of the same compound?
Answer: 90.6%

Question: And the viability, T/C [34]?
Answer: 96.6%

Question: And the viability, T/C [35]?
Answer: 105%

Question: And the viability, T/C [36]?
Answer: 92.6%

Question: For `CC(C)n1c(=O)n(C)c2cnc3cc(F)c(-c4ccc(OCCCN5CCCCC5)nc4)cc3c21` + Cc1[nH]c2ccc(F)cc2c1-c1nc2c3cccnc3c3ncccc3c2[nH]1, which IC50 (second compound 0.0316 µM) is on record?
Answer: > 10 µM

Question: And the IC50 (second compound 0.1 µM)?
Answer: > 10 µM

Question: What about the IC50 (second compound 0.316 µM) of the same compound?
Answer: > 10 µM

Question: What about the IC50 (second compound 1 µM) of the same compound?
Answer: > 10 µM

Question: And the IC50 (second compound 3.16 µM)?
Answer: > 10 µM

Question: And the IC50 (second compound 10 µM)?
Answer: > 10 µM

Question: And the viability, T/C [1]?
Answer: 112%

Question: And the viability, T/C [2]?
Answer: 94.7%

Question: What about the viability, T/C [3] of the same compound?
Answer: 126%

Question: What about the viability, T/C [4] of the same compound?
Answer: 125%

Question: And the viability, T/C [5]?
Answer: 130%

Question: What about the viability, T/C [6] of the same compound?
Answer: 102%

Question: What about the viability, T/C [7] of the same compound?
Answer: 116%

Question: And the viability, T/C [8]?
Answer: 110%

Question: What about the viability, T/C [9] of the same compound?
Answer: 117%

Question: And the viability, T/C [10]?
Answer: 123%

Question: What about the viability, T/C [11] of the same compound?
Answer: 139%

Question: And the viability, T/C [12]?
Answer: 100%

Question: And the viability, T/C [13]?
Answer: 98.7%

Question: And the viability, T/C [14]?
Answer: 104%

Question: What about the viability, T/C [15] of the same compound?
Answer: 127%

Question: And the viability, T/C [16]?
Answer: 122%

Question: What about the viability, T/C [17] of the same compound?
Answer: 128%

Question: And the viability, T/C [18]?
Answer: 96.4%

Question: And the viability, T/C [19]?
Answer: 106%

Question: What about the viability, T/C [20] of the same compound?
Answer: 103%

Question: And the viability, T/C [21]?
Answer: 118%

Question: What about the viability, T/C [22] of the same compound?
Answer: 125%

Question: And the viability, T/C [23]?
Answer: 113%

Question: What about the viability, T/C [24] of the same compound?
Answer: 113%

Question: And the viability, T/C [25]?
Answer: 90%

Question: What about the viability, T/C [26] of the same compound?
Answer: 88%

Question: And the viability, T/C [27]?
Answer: 107%

Question: What about the viability, T/C [28] of the same compound?
Answer: 102%

Question: And the viability, T/C [29]?
Answer: 89.9%

Question: And the viability, T/C [30]?
Answer: 66.7%

Question: What about the viability, T/C [31] of the same compound?
Answer: 85.1%

Question: And the viability, T/C [32]?
Answer: 83.4%

Question: What about the viability, T/C [33] of the same compound?
Answer: 98.8%

Question: And the viability, T/C [34]?
Answer: 98.8%

Question: And the viability, T/C [35]?
Answer: 99.6%

Question: What about the viability, T/C [36] of the same compound?
Answer: 84.8%
